Results published in ChEMBL document CHEMBL1201862, “PubChem BioAssay data set” (2004).
Active and inactive are the calls of the source.

Assays:
[1] = target: Ras and Rab interactor 1/Tyrosine-protein kinase ABL1 (Homo sapiens, UniProt P00519+Q13671); assay type: functional;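 note: biochemical TR-FRET dose-response test measuring inhibition of binding between Rin1 and Abl proteins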
[2] = target: Large T antigen (Simian virus 40, UniProt P03070); assay type: functional, Betapolyomavirus macacae;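 note: Confirmatory-stage PubChem screen for compounds that inhibit SV40 T antigen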
[3] = target: T1, Mitochondrial peptide methionine sulfoxide reductase (Bos taurus, UniProt P54149); experiment: Absorbance-based biochemical high throughput dose response assay for activators of Methionine sulfoxide reductase A (MsrA).; assay type: functional
T1 sequence (P54149 whole entry): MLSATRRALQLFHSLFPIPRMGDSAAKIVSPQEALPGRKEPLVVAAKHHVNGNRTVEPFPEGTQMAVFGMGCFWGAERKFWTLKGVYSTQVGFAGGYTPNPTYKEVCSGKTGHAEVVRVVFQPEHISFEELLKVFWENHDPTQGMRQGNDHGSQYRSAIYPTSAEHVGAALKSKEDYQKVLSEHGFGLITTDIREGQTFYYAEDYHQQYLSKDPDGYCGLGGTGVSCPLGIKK

[4] = (§1) Counterscreen for antagonists of the orexin 1 receptor (OX1R; HCRTR1): Fluorescence-based cell-based high throughput dose response assay to identify antagonists of the parental CHO cell line. [Related pubchem assays (depositor defined):AID434989, AID435008, AID463079, AID485270, AID492963, AID492964, AID492965, AID493232, AID504699, AID504701]; assay type: functional
[5] = test system: CHO-K1; experiment: as §1, with “Homogeneous time resolved fluorescence (HTRF)-based” for “Fluorescence-based”, “cell-based” for “cell-based high throughput”, “CHO-K1” for “CHO”; assay type: functional; conditions: Cricetulus griseus;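 note: potency for inhibition of ATP-stimulated IP1 production as antagonists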
[6] = target: T2, Orexin receptor type 2 (Homo sapiens, UniProt O43614); experiment: Counterscreen assay for antagonists of the orexin 1 receptor (OX1R; HCRTR1): Fluorescence-based cell-based dose response assay for antagonists of the orexin 2 receptor (OX2R; HCRTR2), run by assay provider.; assay type: functional
T2 sequence (O43614 whole entry): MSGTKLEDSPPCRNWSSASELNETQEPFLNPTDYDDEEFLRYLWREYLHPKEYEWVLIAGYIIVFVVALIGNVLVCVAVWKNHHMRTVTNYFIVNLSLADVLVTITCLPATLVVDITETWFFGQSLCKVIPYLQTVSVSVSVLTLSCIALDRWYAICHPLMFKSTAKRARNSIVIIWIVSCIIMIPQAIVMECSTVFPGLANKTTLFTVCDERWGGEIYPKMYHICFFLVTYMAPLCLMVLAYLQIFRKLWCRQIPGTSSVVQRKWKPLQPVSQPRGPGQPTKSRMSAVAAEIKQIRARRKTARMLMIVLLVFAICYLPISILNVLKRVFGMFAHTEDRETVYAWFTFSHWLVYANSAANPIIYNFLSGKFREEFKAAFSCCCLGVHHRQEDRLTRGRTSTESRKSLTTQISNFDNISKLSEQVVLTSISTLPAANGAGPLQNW

[7] = target: T2, Orexin receptor type 2; experiment: Counterscreen assay for antagonists of the orexin 1 receptor (OX1R; HCRTR1): Homogeneous Time Resolved Fluorescence (HTRF)-based cell-based dose response assay for antagonists of the orexin 2 receptor (OX2R; HCRTR2), run by assay provider.; assay type: functional
[8] = target: T3, Orexin/Hypocretin receptor type 1 (Homo sapiens, UniProt O43613); experiment: (§2) Fluorescence-based cell-based high throughput dose response assay for antagonists of the orexin 1 receptor (OX1R; HCRTR1). [Related pubchem assays (depositor defined):AID434989, AID435008, AID463079, AID485270, AID492963, AID492964, AID492965, AID493232, AID504717, AID504718]; assay type: functional
T3 sequence (O43613 whole entry): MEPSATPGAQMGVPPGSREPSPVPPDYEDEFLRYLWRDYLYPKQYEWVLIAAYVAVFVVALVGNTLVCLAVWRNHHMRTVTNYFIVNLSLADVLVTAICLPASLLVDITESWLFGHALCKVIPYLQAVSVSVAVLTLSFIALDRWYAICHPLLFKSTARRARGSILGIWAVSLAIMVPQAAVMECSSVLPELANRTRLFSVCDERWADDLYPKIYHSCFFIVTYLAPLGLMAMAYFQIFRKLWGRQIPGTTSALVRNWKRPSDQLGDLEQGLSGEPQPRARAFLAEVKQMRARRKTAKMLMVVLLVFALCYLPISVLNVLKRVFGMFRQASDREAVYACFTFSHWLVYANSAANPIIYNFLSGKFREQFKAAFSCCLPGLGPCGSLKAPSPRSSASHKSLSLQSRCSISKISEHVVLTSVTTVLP

[9] = target: T3, Orexin/Hypocretin receptor type 1; experiment: as §2, with “Homogeneous Time Resolved Fluorescence (HTRF)-based” for “Fluorescence-based”; assay type: functional
[10] = viability loss in HEK293 cells – cell-based, plate reader, cherry-picked samples, cytotoxicity control, dose response (AID 743446); assay type: functional
[11] = blockade of melanocortin 4 receptor signaling – cell-based, plate reader, cherry pick, counter-screen for LGR2 antagonist project, dose response (AID 743444); assay type: functional;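 note: transfected HEK 293 cells stimulated with alpha-MSH peptide; potency of inhibitors of the alpha-MSH evoked signal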
[12] = toxicity toward HepG2 liver cells – cell-based, plate reader, cherry-pick, antagonist series, cytotoxicity control, dose response (AID 743416); assay type: functional
[13] = test system: HEK293; experiment: EBV LMP1 TES2 canonical NF-kB signalling blockers – cell-based, HEK293, luciferase, cherry-pick, dose response (AID 588343); assay type: functional; conditions: Homo sapiens
[14] = inhibition of ARNT PAS-B/TACC3 complex formation – biochemical, AlphaScreen, cherry-picked samples, confirmation (AID 651703); assay type: functional, Homo sapiens;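 note: His-tagged ARNT PAS-B domain paired with GST-TACC3 E629A dimer coactivator fragment; potency of inhibitors that break up the complex and lower AlphaScreen signal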
[15] = blockers of bursicon-stimulated LGR2 cAMP reporter – cell-based, HEK293, CRE-luciferase reporter, cherry pick, set 2, dose response (AID 743343); assay type: functional;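 note: transfected cells were stimulated with diluted bursicon conditioned medium after compound addition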
[16] = Luminescence Cell-Based Dose Confirmation HTS to Identify Inhibitors of Platelet Dense Granule Release. [Related pubchem assays: 1663 (Primary HTS), 1678 (Summary of Project)]; assay type: functional
[17] = A549 cell cytotoxicity, dose response, cytotoxicity control, plate reader, cherry-pick, antagonist series (AID 743412); assay type: functional, cell-based
[18] = target: Luciferin 4-monooxygenase (Photinus pyralis, UniProt P08659); experiment: inhibition of purified Photinus pyralis luciferase – biochemical, luminescence, dose response (AID 1891)
[19] = activation of miR-122 Renilla sensor silencing – cell-based, Huh7 psiCHECK-miR122, Renilla luciferase, cherry-picked, dose response (AID 651956); assay type: functional;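 note: huh7 hepatoma cells stably carrying a psiCHECK-2 miR-122 sensor plasmid; renilla luciferase signal reporting endogenous miR-122 activity after 48 h compound exposure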
[20] = Luminescence Cell-Based Dose Response HTS to Identify Inhibitors of 5'UTR Stem-Loop Driven Prion Protein mRNA Translation in H4 Neuroglioblastoma Cells. [Related pubchem assays: 1827 (Project Summary), 1813 (Primary HTS)]; assay type: functional
[21] = target: Cytochrome P450 2C19 (Homo sapiens, UniProt P33261); experiment: Cytochrome panel assay with activity outcomes. Panel member name: p450-cyp2c19 Compounds with AC50 equal or less than 10 uM are considered active; assay type: functional; conditions: read-out: AC50
[22] = target: Cytochrome P450 2C9 (Homo sapiens, UniProt P11712)
[23] = alpha-synuclein stem-loop luciferase translation blockers – H4 neuroglioma cells, luminescence, confirmation (AID 1988); assay type: functional, cell-based
[24] = luciferase reporter signal suppression in cells – H4 neuroglioma cells, luminescence, dose response (AID 1990); assay type: functional, cell-based
[25] = target: T4, Type-1 angiotensin II receptor (Homo sapiens, UniProt P30556); experiment: antagonism of angiotensin II type 1 receptor – cell-based, uHTS hits, selectivity assay for APJ receptor antagonist project, dose response (AID 463214); assay type: functional;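 note: antagonist potency against angiotensin II stimulated AT1 response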
T4 sequence (P30556 whole entry): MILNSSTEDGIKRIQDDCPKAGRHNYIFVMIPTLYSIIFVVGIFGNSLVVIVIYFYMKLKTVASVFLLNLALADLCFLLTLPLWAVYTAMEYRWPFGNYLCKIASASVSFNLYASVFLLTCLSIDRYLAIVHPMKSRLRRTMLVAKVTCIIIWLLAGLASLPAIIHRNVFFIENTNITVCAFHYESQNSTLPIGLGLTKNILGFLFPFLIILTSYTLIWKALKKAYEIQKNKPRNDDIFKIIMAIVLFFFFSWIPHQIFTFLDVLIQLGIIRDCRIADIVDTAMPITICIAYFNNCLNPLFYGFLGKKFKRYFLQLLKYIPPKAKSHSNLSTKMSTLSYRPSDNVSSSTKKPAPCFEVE

[26] = target: Beta-galactosidase (Escherichia coli, UniProt Q8VNN2); experiment: PubChem AID 485352; assay type: functional
[27] = target: T5, Apoptotic protease-activating factor 1 (Homo sapiens, UniProt O14727); experiment: SAR analysis of small molecule Activators of Apaf-1 in a Fluorescent assay.; assay type: functional; conditions: read-out: EC50_Mean;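 note: caspase-3 cleavage of fluorogenic Rh110 DEVD substrate downstream of apoptosome activation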
T5 sequence (O14727 whole entry): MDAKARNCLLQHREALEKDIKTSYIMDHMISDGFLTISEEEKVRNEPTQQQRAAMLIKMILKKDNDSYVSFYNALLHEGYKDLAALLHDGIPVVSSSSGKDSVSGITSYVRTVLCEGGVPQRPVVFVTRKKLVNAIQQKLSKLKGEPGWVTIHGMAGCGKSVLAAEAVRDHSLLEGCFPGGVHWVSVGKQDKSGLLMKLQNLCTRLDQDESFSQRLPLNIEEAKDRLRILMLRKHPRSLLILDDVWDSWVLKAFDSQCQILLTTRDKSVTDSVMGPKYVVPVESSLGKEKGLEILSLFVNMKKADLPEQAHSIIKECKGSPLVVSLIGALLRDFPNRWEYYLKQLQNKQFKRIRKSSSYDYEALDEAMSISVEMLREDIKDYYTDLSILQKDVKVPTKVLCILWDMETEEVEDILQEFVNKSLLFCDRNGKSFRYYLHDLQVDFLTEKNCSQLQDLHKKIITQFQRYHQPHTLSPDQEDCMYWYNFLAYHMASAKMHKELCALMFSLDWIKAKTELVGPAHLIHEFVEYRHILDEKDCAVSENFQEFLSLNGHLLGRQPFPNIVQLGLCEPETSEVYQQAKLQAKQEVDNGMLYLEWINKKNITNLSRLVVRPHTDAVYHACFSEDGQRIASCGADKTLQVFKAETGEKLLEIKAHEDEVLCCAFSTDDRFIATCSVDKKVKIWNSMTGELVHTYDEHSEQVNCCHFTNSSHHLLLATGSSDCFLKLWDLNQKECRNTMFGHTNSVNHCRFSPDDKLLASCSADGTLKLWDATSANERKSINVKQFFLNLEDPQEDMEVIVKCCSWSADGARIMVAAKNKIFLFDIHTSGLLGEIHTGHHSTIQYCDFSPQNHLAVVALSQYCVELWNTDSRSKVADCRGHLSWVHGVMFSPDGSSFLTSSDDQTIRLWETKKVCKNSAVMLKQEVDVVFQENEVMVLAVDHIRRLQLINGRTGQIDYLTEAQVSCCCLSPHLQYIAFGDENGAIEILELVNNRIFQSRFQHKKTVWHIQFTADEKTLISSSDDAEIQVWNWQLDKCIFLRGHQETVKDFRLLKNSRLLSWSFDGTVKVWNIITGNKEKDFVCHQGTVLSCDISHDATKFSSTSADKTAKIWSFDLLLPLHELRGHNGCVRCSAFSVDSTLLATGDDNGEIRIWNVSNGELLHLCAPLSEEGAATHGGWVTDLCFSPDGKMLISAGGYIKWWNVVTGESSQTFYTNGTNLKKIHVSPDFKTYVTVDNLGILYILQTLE

Chain of Ras and Rab interactor 1/Tyrosine-protein kinase ABL1 (P00519 whole entry): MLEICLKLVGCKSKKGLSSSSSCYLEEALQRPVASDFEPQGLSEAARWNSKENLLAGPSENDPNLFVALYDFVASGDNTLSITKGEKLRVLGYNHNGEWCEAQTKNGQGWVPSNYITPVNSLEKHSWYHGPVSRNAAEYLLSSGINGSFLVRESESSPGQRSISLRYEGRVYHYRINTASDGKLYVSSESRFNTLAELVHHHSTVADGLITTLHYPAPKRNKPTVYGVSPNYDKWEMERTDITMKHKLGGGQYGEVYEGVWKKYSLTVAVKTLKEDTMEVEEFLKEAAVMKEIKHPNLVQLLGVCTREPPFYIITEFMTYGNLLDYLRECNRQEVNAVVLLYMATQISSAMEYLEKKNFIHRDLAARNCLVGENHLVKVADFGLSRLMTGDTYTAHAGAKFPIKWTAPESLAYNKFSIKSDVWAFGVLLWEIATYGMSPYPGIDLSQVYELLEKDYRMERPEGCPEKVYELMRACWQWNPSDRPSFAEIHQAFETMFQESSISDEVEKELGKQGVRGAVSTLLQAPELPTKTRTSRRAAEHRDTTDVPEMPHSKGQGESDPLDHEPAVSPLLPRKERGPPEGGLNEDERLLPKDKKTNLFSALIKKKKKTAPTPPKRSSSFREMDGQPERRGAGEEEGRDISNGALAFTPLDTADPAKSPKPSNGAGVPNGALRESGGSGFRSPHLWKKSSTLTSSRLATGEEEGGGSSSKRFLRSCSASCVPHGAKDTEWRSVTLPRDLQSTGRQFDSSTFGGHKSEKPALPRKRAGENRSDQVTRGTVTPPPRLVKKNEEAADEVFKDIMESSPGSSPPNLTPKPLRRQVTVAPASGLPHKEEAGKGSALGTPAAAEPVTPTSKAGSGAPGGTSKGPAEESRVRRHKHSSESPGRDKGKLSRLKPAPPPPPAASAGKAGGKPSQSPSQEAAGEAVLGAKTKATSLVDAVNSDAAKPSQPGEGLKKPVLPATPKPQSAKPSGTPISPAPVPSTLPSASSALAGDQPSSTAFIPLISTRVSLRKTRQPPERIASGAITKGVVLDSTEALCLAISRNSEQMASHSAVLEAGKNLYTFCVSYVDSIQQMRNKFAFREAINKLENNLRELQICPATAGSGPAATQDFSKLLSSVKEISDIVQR
Chain of Ras and Rab interactor 1/Tyrosine-protein kinase ABL1 (Q13671 whole entry): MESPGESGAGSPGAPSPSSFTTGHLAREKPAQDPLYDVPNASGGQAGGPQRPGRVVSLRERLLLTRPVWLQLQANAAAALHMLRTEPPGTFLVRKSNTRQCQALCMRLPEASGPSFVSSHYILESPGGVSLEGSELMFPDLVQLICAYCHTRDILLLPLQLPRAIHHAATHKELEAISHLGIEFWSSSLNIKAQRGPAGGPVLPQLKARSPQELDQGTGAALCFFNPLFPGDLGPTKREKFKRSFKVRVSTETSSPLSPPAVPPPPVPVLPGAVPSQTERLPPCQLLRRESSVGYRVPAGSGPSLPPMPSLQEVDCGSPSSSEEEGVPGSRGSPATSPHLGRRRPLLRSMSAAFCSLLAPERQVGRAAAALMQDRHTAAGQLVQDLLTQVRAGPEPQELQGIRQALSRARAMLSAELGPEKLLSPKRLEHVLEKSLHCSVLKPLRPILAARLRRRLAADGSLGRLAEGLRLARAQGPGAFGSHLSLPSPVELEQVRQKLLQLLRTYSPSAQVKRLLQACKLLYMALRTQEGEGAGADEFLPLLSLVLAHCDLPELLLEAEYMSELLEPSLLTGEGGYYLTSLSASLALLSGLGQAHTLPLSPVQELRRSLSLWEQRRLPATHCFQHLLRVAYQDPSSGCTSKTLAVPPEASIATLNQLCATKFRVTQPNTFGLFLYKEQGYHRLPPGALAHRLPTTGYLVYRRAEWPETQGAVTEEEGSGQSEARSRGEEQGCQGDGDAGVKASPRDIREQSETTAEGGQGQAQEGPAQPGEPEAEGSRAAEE
Chain of Cytochrome P450 2C9 (P11712 whole entry): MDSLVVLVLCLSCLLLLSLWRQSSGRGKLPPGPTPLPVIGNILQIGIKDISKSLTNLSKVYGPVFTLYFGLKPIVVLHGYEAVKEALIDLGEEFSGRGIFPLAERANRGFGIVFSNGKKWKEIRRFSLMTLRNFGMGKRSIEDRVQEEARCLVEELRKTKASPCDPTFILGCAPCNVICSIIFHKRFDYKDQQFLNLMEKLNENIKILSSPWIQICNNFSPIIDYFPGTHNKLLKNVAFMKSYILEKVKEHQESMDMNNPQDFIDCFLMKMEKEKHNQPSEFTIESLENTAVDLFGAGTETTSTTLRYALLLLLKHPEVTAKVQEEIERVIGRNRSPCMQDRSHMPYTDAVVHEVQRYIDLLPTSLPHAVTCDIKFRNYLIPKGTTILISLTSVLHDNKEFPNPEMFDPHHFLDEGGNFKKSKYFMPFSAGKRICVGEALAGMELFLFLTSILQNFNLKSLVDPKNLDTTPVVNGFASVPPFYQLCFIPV
Chain of Luciferin 4-monooxygenase (P08659 whole entry): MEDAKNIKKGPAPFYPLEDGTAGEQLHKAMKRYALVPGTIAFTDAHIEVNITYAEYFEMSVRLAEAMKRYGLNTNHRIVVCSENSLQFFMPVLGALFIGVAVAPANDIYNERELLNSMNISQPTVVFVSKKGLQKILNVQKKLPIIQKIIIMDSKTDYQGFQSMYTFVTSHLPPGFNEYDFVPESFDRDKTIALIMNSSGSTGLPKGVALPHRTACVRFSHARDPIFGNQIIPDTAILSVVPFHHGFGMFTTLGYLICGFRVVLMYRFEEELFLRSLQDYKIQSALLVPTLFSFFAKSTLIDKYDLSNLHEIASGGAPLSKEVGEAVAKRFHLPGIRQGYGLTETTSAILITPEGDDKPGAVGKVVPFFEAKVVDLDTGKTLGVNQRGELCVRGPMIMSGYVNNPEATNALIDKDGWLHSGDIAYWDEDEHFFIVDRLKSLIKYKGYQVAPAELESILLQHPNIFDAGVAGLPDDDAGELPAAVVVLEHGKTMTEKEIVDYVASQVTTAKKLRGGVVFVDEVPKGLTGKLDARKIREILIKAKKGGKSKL
Chain of Beta-galactosidase (Q8VNN2 whole entry): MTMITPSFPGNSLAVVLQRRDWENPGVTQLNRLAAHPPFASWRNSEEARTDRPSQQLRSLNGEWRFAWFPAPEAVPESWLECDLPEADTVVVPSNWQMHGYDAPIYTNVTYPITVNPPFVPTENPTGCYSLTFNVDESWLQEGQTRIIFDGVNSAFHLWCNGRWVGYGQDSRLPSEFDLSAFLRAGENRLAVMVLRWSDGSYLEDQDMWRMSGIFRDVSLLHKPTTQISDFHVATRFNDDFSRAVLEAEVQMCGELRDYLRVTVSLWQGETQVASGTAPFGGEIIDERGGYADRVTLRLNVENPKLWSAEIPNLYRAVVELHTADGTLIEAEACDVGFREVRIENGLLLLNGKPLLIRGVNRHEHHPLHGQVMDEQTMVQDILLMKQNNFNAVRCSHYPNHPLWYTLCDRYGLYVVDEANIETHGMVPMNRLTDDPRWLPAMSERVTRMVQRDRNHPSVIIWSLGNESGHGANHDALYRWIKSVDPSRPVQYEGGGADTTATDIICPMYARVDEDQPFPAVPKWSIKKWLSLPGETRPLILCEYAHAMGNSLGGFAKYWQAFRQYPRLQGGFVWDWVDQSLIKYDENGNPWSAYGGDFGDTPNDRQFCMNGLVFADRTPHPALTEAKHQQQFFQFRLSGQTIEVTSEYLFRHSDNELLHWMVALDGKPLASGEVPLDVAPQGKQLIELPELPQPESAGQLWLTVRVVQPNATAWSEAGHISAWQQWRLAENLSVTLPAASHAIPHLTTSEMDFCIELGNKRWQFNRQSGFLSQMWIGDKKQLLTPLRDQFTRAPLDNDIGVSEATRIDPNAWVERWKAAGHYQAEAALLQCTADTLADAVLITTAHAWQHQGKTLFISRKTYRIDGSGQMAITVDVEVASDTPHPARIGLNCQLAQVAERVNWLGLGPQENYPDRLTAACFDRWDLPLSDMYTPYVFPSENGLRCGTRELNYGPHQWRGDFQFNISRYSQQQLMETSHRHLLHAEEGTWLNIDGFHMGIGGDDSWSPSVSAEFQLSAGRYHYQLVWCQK
Chain of Cytochrome P450 2C19 (P33261 whole entry): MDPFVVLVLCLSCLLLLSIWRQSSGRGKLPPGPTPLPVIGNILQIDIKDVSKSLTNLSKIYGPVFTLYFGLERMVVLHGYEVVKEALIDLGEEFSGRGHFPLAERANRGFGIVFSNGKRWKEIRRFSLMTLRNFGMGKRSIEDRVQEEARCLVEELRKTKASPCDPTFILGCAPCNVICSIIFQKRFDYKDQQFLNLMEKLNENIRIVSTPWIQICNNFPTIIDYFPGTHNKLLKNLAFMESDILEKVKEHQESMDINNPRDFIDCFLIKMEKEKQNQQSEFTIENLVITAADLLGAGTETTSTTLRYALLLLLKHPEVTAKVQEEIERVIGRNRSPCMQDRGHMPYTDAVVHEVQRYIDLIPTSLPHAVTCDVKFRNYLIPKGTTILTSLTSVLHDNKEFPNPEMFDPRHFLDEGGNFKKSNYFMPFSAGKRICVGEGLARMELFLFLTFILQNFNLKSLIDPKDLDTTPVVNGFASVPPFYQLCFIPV

CC(C)n1cc(CN2CCC(C(=O)Nc3cccc(-c4cscn4)c3)CC2)cn1
IC50 [1]: 54.5 µM (inactive)

COCCCn1c(=O)c2ccccc2n2c(S)nnc12
IC50 [2]: 9.15 µM (active)
EC50 [3]: > 104 µM (inactive)

CN(C)/C=C1/Oc2c(ccc3ccccc23)C1=O
IC50 [4]: > 49.7 µM (inactive)
IC50 [5]: > 66.2 µM (inactive)
IC50 [6]: > 88.8 µM (inactive)
IC50 [7]: 18.3 µM (inactive)
IC50 [8]: 33.3 µM (inactive)
IC50 [9]: 2.06 µM (active)

Cc1ccc2[nH]c(-c3ccccn3)nc2c1
AC50 [10]: > 52 µM (inactive)
AC50 [11]: 6.67 µM (active)
AC50 [12]: 34.3 µM (active)
AC50 [13]: 3.34 µM (active)
AC50 [14]: 76 µM (active)
AC50 [15]: 5.45 µM (active)
EC50 [16]: 14.7 µM (active)
AC50 [17]: 27.3 µM (active)
EC50 [18]: 2.78 µM (active)

CN(C)CCNc1ncnc2c1sc1nc(N3CCOCC3)c3c(c12)CC(C)(C)SC3
AC50 [19]: 12.9 µM (active)
EC50 [20]: 23.9 µM (active)
AC50 [21]: 31.6 µM (inconclusive)
AC50 [22]: 25.1 µM (inconclusive)
IC50 [1]: 13.7 µM (inactive)
EC50 [23]: 8.17 µM (active)
EC50 [24]: 8.43 µM (active)

CN(/N=C/c1cc([N+](=O)[O-])ccc1O)c1ccccc1
IC50 [4]: > 49.7 µM (inactive)
IC50 [5]: > 66.2 µM (inactive)
IC50 [25]: > 40 µM (not active)
IC50 [6]: > 88.8 µM (inactive)
EC50 [26]: > 40 µM (inactive)
IC50 [7]: > 50 µM (inactive)
IC50 [8]: 2.48 µM (active)
IC50 [9]: 2.39 µM (active)

O=C(O)c1coc(-c2ccc(Cl)cc2)n1
EC50 [27]: > 100 µM (inactive)

COC(=O)c1coc(-c2ccc(Cl)cc2)n1
EC50 [27]: > 100 µM (inactive)
